Earlier results as cited in patent US9611229B2, “1,2,3-triazole-4-amine derivatives for the treatment of sigma receptor related diseases and disorders” (LABORATORIOS DEL DR. ESTEVE S.A., priority 2013, dated 2017).

How the values were obtained:
[1] = molecular target: sigma 1 (σ-1) site (Homo sapiens (Human), UniProt Q99720)
[2] = molecular target: sigma 2 (σ-2) site (Homo sapiens (Human), UniProt Q5BJF2)

## SKF 10047
[1]
  affinity for the sigma 1 (σ-1) site: nanomolar affinity
[2]
  affinity for the sigma 2 (σ-2) site: micromolar affinity
